Columns and labels:
Experiment in all cases: relative viability (nuclei count vs DMSO), 5 days (fraction); higher = more cells survive
NCI-H2405 = system: NCI-H2405
Outline: (§1)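 A single step with final 0.05% Triton X-100, 1% formaldehyde and 1 ug/ml Hoechst fixed the cells and stained nuclei 5 days after treatment. Lung cancer cell lines in 1536-well plates had been treated by pin tool the day after seeding with one drug alone or a fixed anchor-drug dose plus five library-drug doses (not always all listed) in √10 steps, and nuclei were counted on 4× images. Relative viability is the ratio of nuclei in treated wells to nuclei in vehicle wells, taken as the median of duplicate plates.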

SK-MES-1 = system: SK-MES-1
Outline: as §1

NCI-H647 = system: NCI-H647
Outline: as §1

NCI-H1915 = system: NCI-H1915
Outline: as §1

A-427 = system: A-427
Outline: as §1

NCI-H661 = system: NCI-H661
Outline: as §1

COR-L23 = system: COR-L23
Outline: as §1

NCI-H1993 = system: NCI-H1993
Outline: as §1

COR-L 105 = system: COR-L 105
Outline: as §1

HCC-366 = system: HCC-366
Outline: as §1

PC-14 = system: PC-14
Outline: as §1

EMC-BAC-2 = system: EMC-BAC-2
Outline: as §1

HCC-78 = system: HCC-78
Outline: as §1

201T = system: 201T
Outline: as §1

HOP-62 = system: HOP-62
Outline: as §1

NCI-H460 = system: NCI-H460
Outline: as §1

LK-2 = system: LK-2
Outline: as §1

NCI-H1563 = system: NCI-H1563
Outline: as §1

EKVX = system: EKVX
Outline: as §1

BEN = system: BEN
Outline: as §1

NCI-H1734 = system: NCI-H1734
Outline: as §1

HCC-15 = system: HCC-15
Outline: as §1

In the case of `Cc1csc(=NC2CCCCC2)n1/N=C/c1ccc(O)c(O)c1O` [MIM1] + C[C@@H](Oc1cc(-c2cnn(C3CCNCC3)c2)cnc1N)c1c(Cl)ccc(F)c1Cl [Crizotinib] (partner 1 µM), the relative viability (NCI-H2405; first compound 0.2 µM) is reported as 0.883, the relative viability (NCI-H2405; first compound 0.6325 µM) is reported as 0.864 and the relative viability (NCI-H2405; first compound 2 µM) is reported as 0.912. For the same molecule, the relative viability (NCI-H2405; first compound 6.325 µM) was 0.701, the relative viability (NCI-H2405; first compound 20 µM) was 0.508 and the relative viability (SK-MES-1; first compound 0.2 µM) was 0.953. For the same molecule, the relative viability (SK-MES-1; first compound 0.6325 µM) was 0.937, the relative viability (SK-MES-1; first compound 2 µM) was 0.959 and the relative viability (SK-MES-1; first compound 6.325 µM) was 0.799. For the same molecule, the relative viability (SK-MES-1; first compound 20 µM) was 0.732, the relative viability (NCI-H647; first compound 0.2 µM) was 1.05 and the relative viability (NCI-H647; first compound 0.6325 µM) was 1.17. For the same molecule, the relative viability (NCI-H647; first compound 2 µM) was 1.02, the relative viability (NCI-H647; first compound 6.325 µM) was 0.719 and the relative viability (NCI-H647; first compound 20 µM) was 0.354. For the same molecule, the relative viability (NCI-H1915; first compound 0.2 µM) was 0.887, the relative viability (NCI-H1915; first compound 0.6325 µM) was 0.875 and the relative viability (NCI-H1915; first compound 2 µM) was 0.792. It also gave a relative viability (NCI-H1915; first compound 6.325 µM) of 0.648, a relative viability (NCI-H1915; first compound 20 µM) of 0.219 and a relative viability (A-427; first compound 0.2 µM) of 0.881. For the same molecule, the relative viability (A-427; first compound 0.6325 µM) was 0.731, the relative viability (A-427; first compound 2 µM) was 0.862 and the relative viability (A-427; first compound 6.325 µM) was 0.713. The relative viability (A-427; first compound 20 µM) was 0.214, the relative viability (NCI-H661; first compound 0.2 µM) was 0.973 and the relative viability (NCI-H661; first compound 0.6325 µM) was 0.953. It also gave a relative viability (NCI-H661; first compound 2 µM) of 0.875, a relative viability (NCI-H661; first compound 6.325 µM) of 0.677 and a relative viability (NCI-H661; first compound 20 µM) of 0.531. For the same molecule, the relative viability (COR-L23; first compound 0.2 µM) was 0.571, the relative viability (COR-L23; first compound 0.6325 µM) was 0.621 and the relative viability (COR-L23; first compound 2 µM) was 0.657. The relative viability (COR-L23; first compound 6.325 µM) was 0.461, the relative viability (COR-L23; first compound 20 µM) was 0.372 and the relative viability (NCI-H1993; first compound 0.2 µM) was 0.886. For the same molecule, the relative viability (NCI-H1993; first compound 0.6325 µM) was 0.805, the relative viability (NCI-H1993; first compound 2 µM) was 0.827 and the relative viability (NCI-H1993; first compound 6.325 µM) was 0.608. It also gave a relative viability (NCI-H1993; first compound 20 µM) of 0.594, a relative viability (COR-L 105; first compound 0.2 µM) of 0.893 and a relative viability (COR-L 105; first compound 0.6325 µM) of 0.811. The relative viability (COR-L 105; first compound 2 µM) was 0.612, the relative viability (COR-L 105; first compound 6.325 µM) was 0.724 and the relative viability (COR-L 105; first compound 20 µM) was 0.759. It also gave a relative viability (HCC-366; first compound 0.2 µM) of 0.552, a relative viability (HCC-366; first compound 0.6325 µM) of 0.483 and a relative viability (HCC-366; first compound 2 µM) of 0.326. For the same molecule, the relative viability (HCC-366; first compound 6.325 µM) was 0.425, the relative viability (HCC-366; first compound 20 µM) was 0.0362 and the relative viability (PC-14; first compound 0.2 µM) was 0.854. The relative viability (PC-14; first compound 0.6325 µM) was 0.839, the relative viability (PC-14; first compound 2 µM) was 0.873 and the relative viability (PC-14; first compound 6.325 µM) was 0.728. For the same molecule, the relative viability (PC-14; first compound 20 µM) was 0.254, the relative viability (EMC-BAC-2; first compound 0.2 µM) was 0.708 and the relative viability (EMC-BAC-2; first compound 0.6325 µM) was 0.774. For the same molecule, the relative viability (EMC-BAC-2; first compound 2 µM) was 0.784, the relative viability (EMC-BAC-2; first compound 6.325 µM) was 0.628 and the relative viability (EMC-BAC-2; first compound 20 µM) was 0.196. It also gave a relative viability (HCC-78; first compound 0.2 µM) of 0.322, a relative viability (HCC-78; first compound 0.6325 µM) of 0.324 and a relative viability (HCC-78; first compound 2 µM) of 0.309. It also gave a relative viability (HCC-78; first compound 6.325 µM) of 0.318, a relative viability (HCC-78; first compound 20 µM) of 0.735 and a relative viability (201T; first compound 0.2 µM) of 1.01. For the same molecule, the relative viability (201T; first compound 0.6325 µM) was 1.04, the relative viability (201T; first compound 2 µM) was 1.04 and the relative viability (201T; first compound 6.325 µM) was 0.81. The relative viability (201T; first compound 20 µM) was 0.823, the relative viability (HOP-62; first compound 0.2 µM) was 0.927 and the relative viability (HOP-62; first compound 0.6325 µM) was 0.914. It also gave a relative viability (HOP-62; first compound 2 µM) of 0.642, a relative viability (HOP-62; first compound 6.325 µM) of 0.888 and a relative viability (HOP-62; first compound 20 µM) of 0.0803. The relative viability (NCI-H460; first compound 0.2 µM) was 0.853, the relative viability (NCI-H460; first compound 0.6325 µM) was 0.994 and the relative viability (NCI-H460; first compound 2 µM) was 0.374. For the same molecule, the relative viability (NCI-H460; first compound 6.325 µM) was 0.205, the relative viability (NCI-H460; first compound 20 µM) was 0.031 and the relative viability (LK-2; first compound 0.2 µM) was 0.234. It also gave a relative viability (LK-2; first compound 0.6325 µM) of 0.233, a relative viability (LK-2; first compound 6.325 µM) of 0.227 and a relative viability (LK-2; first compound 20 µM) of 0.229. The relative viability (NCI-H1563; first compound 0.2 µM) was 1, the relative viability (NCI-H1563; first compound 0.6325 µM) was 0.891 and the relative viability (NCI-H1563; first compound 2 µM) was 0.749. The relative viability (NCI-H1563; first compound 6.325 µM) was 0.784, the relative viability (NCI-H1563; first compound 20 µM) was 0.577 and the relative viability (EKVX; first compound 0.2 µM) was 0.989. It also gave a relative viability (EKVX; first compound 0.6325 µM) of 0.887, a relative viability (EKVX; first compound 2 µM) of 0.788 and a relative viability (EKVX; first compound 6.325 µM) of 0.527. For the same molecule, the relative viability (EKVX; first compound 20 µM) was 0.757, the relative viability (BEN; first compound 0.2 µM) was 0.893 and the relative viability (BEN; first compound 0.6325 µM) was 0.72. For the same molecule, the relative viability (BEN; first compound 2 µM) was 0.982, the relative viability (BEN; first compound 6.325 µM) was 0.801 and the relative viability (BEN; first compound 20 µM) was 0.317. It also gave a relative viability (NCI-H1734; first compound 0.2 µM) of 0.657, a relative viability (NCI-H1734; first compound 0.6325 µM) of 0.677 and a relative viability (NCI-H1734; first compound 2 µM) of 0.596. It also gave a relative viability (NCI-H1734; first compound 6.325 µM) of 0.379, a relative viability (NCI-H1734; first compound 20 µM) of 0.242 and a relative viability (HCC-15; first compound 0.2 µM) of 0.801. It also gave a relative viability (HCC-15; first compound 0.6325 µM) of 0.808, a relative viability (HCC-15; first compound 2 µM) of 0.86 and a relative viability (HCC-15; first compound 6.325 µM) of 0.406. For the same molecule, the relative viability (HCC-15; first compound 20 µM) was 0.12.
